Results reported in patent US20150346214A1, “DETECTION OF MEMBRANE PROTEINS” (priority 2012, published 2015).

Legend:
[1] = molecular target: E. coli ammonium channel C-terminally fused to green fluorescent protein (AmtB-GFP) (Escherichia coli, UniProt P69681, S65T); conditions: AmtB-GFP trimer in MS buffer with 2x CMC of the detergent; charge state envelopes modelled with a Gaussian
Method: The activation energy required to achieve resolved peaks of E. coli ammonium channel C-terminally fused to green fluorescent protein (AmtB-GFP) was assessed for a variety of non-ionic detergents.
AmtB-GFP was extracted from purified membranes (described above) with 1-2% (w/v) of the detergent of interest in Buffer B and incubated for one to three hours at room temperature or overnight at 4° C. Insoluble material was pelleted by centrifugation at 20,000 g for 25 minutes at 4° C. The clarified supernatant was loaded onto small Ni-NTA agarose (Qiagen) drip columns (Bio-spin Chromatography columns, Bio-Rad) and washed with several column volumes of Buffer C (200 mM sodium chloride, 20 mM Imidazole, 5 mM BME, 2× CMC detergent of interest, and 50 mM TRIS, pH 8.0 at room temperature). AmtB-GFP was eluted with two column volumes of Buffer D (100 mM sodium chloride, 250 mM Imidazole, 5 mM BME, 2× CMC detergent of interest, and 50 mM TRIS, pH 8.0 at room temperature). Eluted protein was concentrated using a 100 kDa MWCO concentrator and buffer exchanged into MS Buffer (2× CMC detergent of interest and 200 mM Ammonium Acetate, pH 8.0 with Ammonium Hydroxide) using a centrifugal buffer exchange device (Micro Bio-Spin 6, Bio-Rad).
Buffer exchanged protein was analysed on a Q-TOF 2 mass spectrometer (Micromass, Manchester, UK) with a Z-spray source including modifications for protein complexes after introduction of complexes from gold-coated nanoflow capillaries.

[2] = molecular target: T1, mechanosensitive channel of large conductance (MscL) (Mycobacterium tuberculosis, UniProt P9WJN5); test: Phospholipid binding to MscL resolved by native MS / IM-MS in C8E4; conditions: optimised P:L:D ratio of Table 2
T1 sequence (P9WJN5 1-151): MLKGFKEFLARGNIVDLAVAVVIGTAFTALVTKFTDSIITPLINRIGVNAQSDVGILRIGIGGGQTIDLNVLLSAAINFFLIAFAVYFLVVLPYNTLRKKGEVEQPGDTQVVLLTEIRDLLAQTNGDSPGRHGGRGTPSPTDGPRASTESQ

[3] = molecular target: T2, Aquaporin Z (AQPZ) (Escherichia coli, UniProt P60844); test: Mass spectra and ion mobility MS of AQPZ complex in three detergents (Example 2); set-up: species or system E. coli; conditions: for experimental collisional cross section (CCS) / folded state: AQPZ, IM-MS, CIU fingerprints, C8E4 at ELAB <1500; for species in mass spectrum (expected oligomer versus dissociation products): tetrameric AQPZ, sample cone 10 volts, collision voltage 200 volts
Method: (§1) AmtB-GFP and AQPZ-GFP were extracted from purified membranes in 2% OG in Buffer B and incubated overnight at 4° C. Extracted membrane proteins were clarified by centrifugation at 20,000 g for 25 minutes at 4° C. The clarified supernatant was filtered before loading onto a 5 mL HisTrap-HP column (GE Healthcare, Piscataway, NJ) equilibrated in Buffer E (200 mM sodium chloride, 10% glycerol, 20 mM Imidazole, 0.025% DDM, and 50 mM TRIS, pH 7.4 at room temperature). After the clarified supernatant was loaded, the column was initially washed with 40-50 mL of Buffer E containing 1% OG instead of DDM followed by several column volumes of Buffer E until a steady baseline was reached. Protein was eluted with a linear gradient to 100% in two column volumes of Buffer F (100 mM sodium chloride, 10% glycerol, 500 mM Imidazole, 0.025% DDM, and 50 mM TRIS, pH 7.4 at room temperature). Peak fractions were pooled, supplemented with 5mM BME and His-tagged TEV protease, arid dialyzed against Buffer G (150 mM sodium chloride, 10% glycerol, 20 mM Imidazole, 0.02% DDM, and 50 mM TRIS, pH 7.4 at room temperature) overnight at 4° C. After overnight incubation at 4° C., samples were filtered and passed back over a 5 mL. HisTrap-HP column equilibrated in Buffer E. Flow through containing the untagged membrane protein was collected and concentrated using a 100 kDa MWCO concentrator. Concentrated protein was flash frozen in liquid nitrogen and stored at -80° C.
(§2) Frozen samples were thawed on ice prior to detergent exchange over gel filtration. Samples were injected on a Superdex 200 10/300 (GE Healthcare) equilibrated in Buffer H (130 mM sodium chloride, 10% glycerol, and 50 mM TRIS, pH 7.4 at room temperature) supplemented with 0.5% of C8E4, 0.4% of NG, or 0.02% of DDM. Peak fractions were concentrated using a 100 kDa MWCO concentrator. Concentrated protein was either used directly or flash-frozen in liquid nitrogen and stored at −80° C. Purified membrane proteins were buffer exchanged into MS Buffer (2× CMC detergent of interest and 200 mM Ammonium Acetate, pH 8.0 with Ammonium Hydroxide) using a centrifugal buffer exchange device (Micro Bio-Spin 6, Bio-Rad).
(§3) Buffer exchanged protein was analysed on a quadrupole ion mobility time-of-flight mass spectrometer (Synapt HDMS, Waters Corp.) modified with an 18 cm drift cell with radial RF confinement (RF amplitude 200 V) and a linear voltage gradient along the axis of ion transmission such that collision cross section (CCS) values could be determined directly.
(§4) Mass spectra were acquired with instrument set to 10 volts for sample cone and 200 volts for collision voltage.
(§5) The preservation of native structure is most likely due to the charge reducing behaviour of C8E4, as well as other polyoxyalkylene glycol detergents, which results in a two to five fold reduction in activation energy. In addition, under ELAB values slightly greater than 1500, the CCS value increases consistent with partial unfolding. More importantly, gas-phase unfolding can be observed for these membrane complexes at ELAB values of 1750 to 2250. These gas-phase unfolding transitions can be altered in the presence of a drug molecule that stabilises protein structure, thereby enabling the detection of drug molecules that stabilise protein structure.

[4] = molecular target: ammonium channel (AmtB) (Escherichia coli, UniProt P69681); test: Mass spectra and ion mobility MS of AmtB complex in three detergents (Example 2); set-up: species or system E. coli; conditions: for experimental collisional cross section (CCS) / folded state: AmtB, IM-MS, CIU fingerprints, C8E4 at ELAB <1500; for species in mass spectrum (expected oligomer versus dissociation products): trimeric AmtB, sample cone 10 volts, collision voltage 200 volts
Method: as §1, §2, §3, §4, §5

[5] = molecular target: T2, Aquaporin Z (AQPZ); test: Phospholipid binding to AQPZ resolved by native MS / IM-MS in C8E4; set-up: species or system E. coli; conditions: for # Bound (number of resolvable phospholipids bound): AQPZ in C8E4, optimised P:L:D ratio of Table 2
[6] = molecular target: ammonia channel (AmtB) (Escherichia coli, UniProt P69681); test: Phospholipid binding to AmtB resolved by native MS / IM-MS in C8E4; set-up: species or system E. coli; conditions: AmtB in C8E4; optimised P:L:D ratio of Table 2

T2 sequence (P60844 whole entry): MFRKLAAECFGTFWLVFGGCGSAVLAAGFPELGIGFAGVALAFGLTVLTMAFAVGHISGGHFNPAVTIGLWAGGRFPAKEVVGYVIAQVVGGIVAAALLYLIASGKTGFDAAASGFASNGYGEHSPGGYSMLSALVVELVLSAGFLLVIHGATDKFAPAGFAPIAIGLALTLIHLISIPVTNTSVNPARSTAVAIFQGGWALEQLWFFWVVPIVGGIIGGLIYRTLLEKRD

Compound	Zavg (mean charge state) [1]	# Bound (number of resolvable phospholipids bound) [2]	further results
OC[C@H]1O[C@H](O[C@H]2[C@H](O)[C@@H](O)[C@H](OCCCCCC3CCCCC3)O[C@@H]2CO)[C@H](O)[C@@H](O)[C@@H]1O [Cy5, Cymal-5]	31.3	–	–
CCCCCCCCCCCOC1OC(CO)C(OC2OC(CO)C(O)C(O)C2O)C(O)C1O [UDM, n-Undecyl-β-D-maltoside]	30.3	–	–
CCCCCCCCCCCCS[C@@H]1O[C@H](CO)[C@@H](O[C@H]2O[C@H](CO)[C@@H](O)[C@H](O)[C@H]2O)[C@H](O)[C@H]1O [DDTM, n-Dodecyl-β-D-thiomaltopyranoside]	30.0	–	–
polyethylene glycol tert-octylphenyl ether [TX100]	21.6	–	–
CCCC/C=C\CCCCCCCC(=O)OC[C@H](COP(=O)([O-])OCC[N+](C)(C)C)OC(=O)CCCCCCC/C=C\CCCC (stereo in doubt) [DMPC, 1,2-dimyristoleoyl-sn-glycero-3-phosphocholine (14:1 Cis)]	–	2	–
CCCCCCCCCCCCO[C@@H]1O[C@H](CO)[C@@H](O[C@H]2O[C@H](CO)[C@@H](O)[C@H](O)[C@H]2O)[C@H](O)[C@H]1O [DDM, n-Dodecyl-β-D-maltoside]	30.4	–	experimental collisional cross section (CCS) / folded state [3]: all unfolded CCS values; species in mass spectrum (expected oligomer versus dissociation products) [3]: mainly dissociation products; experimental collisional cross section (CCS) / folded state [4]: all unfolded CCS values; species in mass spectrum (expected oligomer versus dissociation products) [4]: mainly dissociation products
CCCCCCCCOCCOCCOCCOCCO [C8E4, tetraethylene glycol monooctyl ether]	21.3	–	experimental collisional cross section (CCS) / folded state [3]: consistent with calculated CCS values from their respective crystal structure; species in mass spectrum (expected oligomer versus dissociation products) [3]: no observable dissociation products; experimental collisional cross section (CCS) / folded state [4]: consistent with calculated CCS values from their respective crystal structure; species in mass spectrum (expected oligomer versus dissociation products) [4]: no observable dissociation products
L-α-phosphatidylethanolamine (E. coli) [PE]	–	1	# Bound (number of resolvable phospholipids bound) [5]: 1; # Bound (number of resolvable phospholipids bound) [6]: 2
CCCCCCCC/C=C\CCCCCCCC(=O)OC[C@H](COP(=O)(O)O[C@H]1C(O)C(O)C(O)[C@@H](OP(=O)(O)O)C1O)OC(=O)CCCCCCC/C=C\CCCCCCCC (some centres unmarked) [PI]	–	4	–
OC[C@H]1O[C@H](O[C@H]2[C@H](O)[C@@H](O)[C@H](OCCCCCCC3CCCCC3)O[C@@H]2CO)[C@H](O)[C@@H](O)[C@@H]1O [Cy6, Cymal-6]	30.5	–	–
CCCCCCCC/C=C\CCCCCCCCCC(=O)OC[C@H](COP(=O)([O-])OCC[N+](C)(C)C)OC(=O)CCCCCCCCC/C=C\CCCCCCCC (stereo in doubt) [DIPC, 1,2-dieicosenoyl-sn-glycero-3-phosphocholine (20:1 Cis)]	–	2	–
polyoxyethylene (20) cetyl ether [C16E20]	25.0	–	–
CCCCCCCC/C=C\CCCCCCCC(=O)OC[C@H](COP(=O)([O-])OCC[N+](C)(C)C)OC(=O)CCCCCCC/C=C\CCCCCCCC (stereo in doubt) [DOPC, 1,2-dioleoyl-sn-glycero-3-phosphocholine (18:1 Cis)]	–	2	–
CCCCCCCCCO[C@@H]1O[C@H](CO)[C@@H](O)[C@H](O)[C@H]1O [NG, n-Nonyl-β-D-glucopyranoside]	30.4	–	experimental collisional cross section (CCS) / folded state [3]: the complex is unfolded; species in mass spectrum (expected oligomer versus dissociation products) [3]: mainly dissociation products; experimental collisional cross section (CCS) / folded state [4]: no CCS could be observed indicating native structure; species in mass spectrum (expected oligomer versus dissociation products) [4]: mainly dissociation products
CCCCCCCCO[C@@H]1O[C@H](CO)[C@@H](O)[C@H](O)[C@H]1O [OG, n-Octyl-β-D-glucopyranoside]	31.2	–	–
CCCCCCCC/C=C\CCCCCCCCCCCC(=O)OC[C@H](COP(=O)([O-])OCC[N+](C)(C)C)OC(=O)CCCCCCCCCCC/C=C\CCCCCCCC (stereo in doubt) [DEPC, 1 ,2-dierucoyl-sn-glycero-3-phosphocholine (22:1 Cis)]	–	2	–
polyoxyethylene (8) dodecyl ether [C12E8]	25.8	–	–
1-palrnitoyl-2-oleoyl-sn-glycero-3-phosphocholine (16:0-18:1) [PC]	–	3	# Bound (number of resolvable phospholipids bound) [5]: 3; bound phospholipid molecules ([5]; AQPZ tetramer, mass spectra and ion mobility (FIG. 9)): up to four; bound phospholipid molecules resolved ([5]; AQPZ, collision voltage 130 V (FIG. 6a)): one to six; # Bound (number of resolvable phospholipids bound) [6]: 3
Octyl Glucose Neopentyl Glycol [OGNG]	27.9	–	–
CCCCCCCC/C=C\CCCCCCCCCCCCCC(=O)OC[C@H](COP(=O)([O-])OCC[N+](C)(C)C)OC(=O)CCCCCCCCCCCCC/C=C\CCCCCCCC (stereo in doubt) [DNPC, 1,2-dinervonoyl-sn-glycero-3-phosphocholine (24:1 Cis)]	–	2	–
CCCCCC/C=C\CCCCCCCC(=O)OC[C@H](COP(=O)([O-])OCC[N+](C)(C)C)OC(=O)CCCCCCC/C=C\CCCCCC (stereo in doubt) [DPPC, 1,2-dipalmitoleoyl-sn-glycero-3-phosphocholine (16:1 Cis)]	–	2	–
CCCCCCCCCCO[C@@H]1O[C@H](CO)[C@@H](O[C@H]2O[C@H](CO)[C@@H](O)[C@H](O)[C@H]2O)[C@H](O)[C@H]1O [DM, n-Decyl-β-D-maltoside]	31.4	–	–
CCCCCCCCS[C@@H]1O[C@H](CO)[C@@H](O)[C@H](O)[C@H]1O [OTG, n-Octyl-β-D-thioglucopyranoside]	31.9	–	–
